PMC9324933 (Chemistry (Weinheim an Der Bergstrasse, Germany), 2022)

How the values were obtained:
[1] = N-octanol/water partition coefficient; assay type: physicochemical; settings: RP-TLC, MOPS pH 7.4/acetonitrile
[2] = Redox potentials by cyclic voltammetry and differential pulse voltammetry; assay type: physicochemical; settings: redox potential versus ferrocene/ferrocenium (FcH/FcH+); acetonitrile, 23 °C
A2780 cells = experiment: Viability of A2780 cells; assay type: cell-based; settings: read-out: IC50 A2780 cells; human ovarian cancer cells, 48 h, MTT
BL‐2 cells = experiment: Viability of BL-2 cells; assay type: cell-based; settings: read-out: IC50 BL‐2 cells; human Burkitt's lymphoma cells, 48 h, MTT

With [Fe+2].c1cc[cH-]c1.c1cc[cH-]c1 [FcH, ferrocene] the LogP [1] was 3.40, the E1/2 [2] was 0 mV and the IC50 (A2780 cells) was > 50 µM. For the same compound, the IC50 (BL‐2 cells) was > 50 µM.
